Data reported in PubChem BioAssay AID256 (DTP/NCI, 2004).
Values joined by “and” are separate entries in the source; they are usually repeats but may differ in a detail not shown here. Identical values can stand only once. Inconclusive results and toxic doses are left out. Rule for the calls: active = survival T/C of 150% or more; inactive = T/C below 125% in these data.

Tested on: CD2F1 mice, L1210 leukemia ip, survival T/C
Assay: NCI In Vivo Anticancer Drug Screen. Data for tumor model L1210 Leukemia (intraperitoneal) in CD2F1 (CDF1) mice
Settings: higher = longer survival
Outline: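 Transplantable tumor in mice; compound-treated vs vehicle-treated groups. Read-out = treated/control ratio of the measured endpoint.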

[1] = endpoint: mean survival time, dose: 100.0 mg/kg/injection, schedule: Q04DX003 (ip), vehicle: saline with Tween-80
[2] = endpoint: mean survival time, dose: 200.0 mg/kg/injection, schedule: Q04DX003 (ip), vehicle: saline with Tween-80
[3] = endpoint: mean survival time, dose: 400.0 mg/kg/injection, schedule: Q04DX003 (ip), vehicle: saline with Tween-80

Measured: T/C

BrC[P+](CBr)(CBr)CBr
inactive: endpoint: median survival time, dose: 25.0 mg/kg/injection, schedule: Q01DX009 (ip), vehicle: saline with Tween-80 98 % of control | endpoint: median survival time, dose: 50.0 mg/kg/injection, schedule: Q01DX009 (ip), vehicle: saline with Tween-80 102 % of control | endpoint: median survival time, dose: 100.0 mg/kg/injection, schedule: Q01DX009 (ip), vehicle: saline with Tween-80 102 % of control | endpoint: median survival time, dose: 200.0 mg/kg/injection, schedule: Q01DX009 (ip), vehicle: saline with Tween-80 109 % of control | endpoint: median survival time, dose: 400.0 mg/kg/injection, schedule: Q01DX009 (ip), vehicle: saline with Tween-80 96 % of control

C(=N\N=C(c1ccccc1)c1ccccc1)/c1ccc2c(c1)CCC2
inactive: [1] 87 % of control | [2] 95 % of control | [3] 91 % of control

CCCCCCCCCCCCCCCCNS(=O)(=O)c1ccc2sc(SC)nc2c1
inactive: endpoint: mean survival time, dose: 12.5 mg/kg/injection, schedule: Q04DX002 (ip), vehicle: saline with Tween-80 93 % of control | endpoint: mean survival time, dose: 25.0 mg/kg/injection, schedule: Q04DX002 (ip), vehicle: saline with Tween-80 93 % of control

O=c1[nH]c(=O)n(C2SC(CO)C(O)C2O)cc1F (stereo not drawn)
inactive: endpoint: mean survival time, dose: 178.0 mg/kg/injection, schedule: Q01DX009 (ip), vehicle: saline with Tween-80 113 % of control | endpoint: mean survival time, dose: 267.0 mg/kg/injection, schedule: Q01DX009 (ip), vehicle: saline with Tween-80 113 % of control | endpoint: mean survival time, dose: 400.0 mg/kg/injection, schedule: Q01DX009 (ip), vehicle: saline with Tween-80 119 % of control

O=Cc1[nH]c(=S)[nH]c(=O)c1CCCc1ccccc1
inactive: endpoint: mean survival time, dose: 25.0 mg/kg/injection, schedule: Q04DX002 (ip), vehicle: Klucel (hydroxypropylcellulose) (HPC) 96 % of control | endpoint: mean survival time, dose: 50.0 mg/kg/injection, schedule: Q04DX002 (ip), vehicle: Klucel (hydroxypropylcellulose) (HPC) 104 % of control | endpoint: mean survival time, dose: 100.0 mg/kg/injection, schedule: Q04DX002 (ip), vehicle: Klucel (hydroxypropylcellulose) (HPC) 93 % of control | endpoint: mean survival time, dose: 200.0 mg/kg/injection, schedule: Q04DX002 (ip), vehicle: Klucel (hydroxypropylcellulose) (HPC) 94 % of control | endpoint: mean survival time, dose: 400.0 mg/kg/injection, schedule: Q04DX002 (ip), vehicle: Klucel (hydroxypropylcellulose) (HPC) 90 % of control

C=CCCCCCCCCC(=O)NCCCN1CCOCC1
inactive: endpoint: mean survival time, dose: 100.0 mg/kg/injection, schedule: Q01DX001 (ip), vehicle: saline with Tween-80 91 % of control | endpoint: mean survival time, dose: 200.0 mg/kg/injection, schedule: Q01DX001 (ip), vehicle: saline with Tween-80 86 % of control

C1c2nnnn2Cc2nnnn21
inactive: endpoint: mean survival time, dose: 12.5 mg/kg/injection, schedule: Q04DX002 (ip), vehicle: saline 96 % of control | endpoint: mean survival time, dose: 25.0 mg/kg/injection, schedule: Q04DX002 (ip), vehicle: saline 104 % of control | endpoint: mean survival time, dose: 50.0 mg/kg/injection, schedule: Q04DX002 (ip), vehicle: saline 93 % of control

O=C1C2=C(Nc3cc([N+](=O)[O-])ccc3N2)OC1c1ccccn1 (stereo not drawn)
inactive: endpoint: median survival time, dose: 25.0 mg/kg/injection, schedule: Q01DX005 (ip), vehicle: Klucel (hydroxypropylcellulose) (HPC) 102 % of control | endpoint: median survival time, dose: 50.0 mg/kg/injection, schedule: Q01DX005 (ip), vehicle: Klucel (hydroxypropylcellulose) (HPC) 108 % of control | endpoint: median survival time, dose: 100.0 mg/kg/injection, schedule: Q01DX005 (ip), vehicle: Klucel (hydroxypropylcellulose) (HPC) 108 % of control

COc1ccc(/C=C2\N=C(c3ccccc3)OC2=O)cc1OC
inactive: endpoint: mean survival time, dose: 100.0 mg/kg/injection, schedule: Q01DX009 (ip), vehicle: saline 103 % of control | endpoint: mean survival time, dose: 200.0 mg/kg/injection, schedule: Q01DX009 (ip), vehicle: saline 98 % of control | endpoint: mean survival time, dose: 400.0 mg/kg/injection, schedule: Q01DX009 (ip), vehicle: saline 98 % of control

Cc1cc2c(-c3ccccc3)c(-c3ccccc3)oc(=O)c2cc1C
inactive: [1] 95 % of control | [2] 90 % of control | [3] 92 % of control

CC1OC(OC2C(O)CC(OC3C(O)CC(OC4CCC5(C)C(CCC6C5CCC5(C)C(C7=CC(=O)OC7)CCC65O)C4)OC3C)OC2C)CC(O)C1O (stereo not drawn)
inactive: endpoint: median survival time, dose: 0.5 mg/kg/injection, schedule: Q01DX005 (iv), vehicle: water 109 % of control | endpoint: median survival time, dose: 0.5 mg/kg/injection, schedule: Q01DX010 (ip), vehicle: water 106 % of control | endpoint: median survival time, dose: 1.0 mg/kg/injection, schedule: Q01DX005 (iv), vehicle: water 108 % of control | endpoint: median survival time, dose: 1.0 mg/kg/injection, schedule: Q01DX010 (ip), vehicle: water 108 % of control | endpoint: median survival time, dose: 1.0 mg/kg/injection, schedule: Q04DX003 (ip), vehicle: water 101 % of control | endpoint: median survival time, dose: 1.0 mg/kg/injection, schedule: Q04DX003 (iv), vehicle: water 111 % of control | endpoint: median survival time, dose: 2.0 mg/kg/injection, schedule: Q01DX005 (iv), vehicle: water 97 % of control | endpoint: median survival time, dose: 2.0 mg/kg/injection, schedule: Q01DX010 (ip), vehicle: water 109 % of control | endpoint: median survival time, dose: 2.0 mg/kg/injection, schedule: Q04DX003 (ip), vehicle: water 101 % of control | endpoint: median survival time, dose: 2.0 mg/kg/injection, schedule: Q04DX003 (iv), vehicle: water 109 % of control | endpoint: median survival time, dose: 4.0 mg/kg/injection, schedule: Q01DX005 (iv), vehicle: water 108 % of control | endpoint: median survival time, dose: 4.0 mg/kg/injection, schedule: Q01DX010 (ip), vehicle: water 108 % of control | endpoint: median survival time, dose: 4.0 mg/kg/injection, schedule: Q04DX003 (ip), vehicle: water 107 % of control | endpoint: median survival time, dose: 4.0 mg/kg/injection, schedule: Q04DX003 (iv), vehicle: water 110 % of control | endpoint: median survival time, dose: 8.0 mg/kg/injection, schedule: Q01DX005 (iv), vehicle: water 90 % of control | endpoint: median survival time, dose: 8.0 mg/kg/injection, schedule: Q04DX003 (ip), vehicle: water 98 % of control | endpoint: median survival time, dose: 8.0 mg/kg/injection, schedule: Q04DX003 (iv), vehicle: water 110 % of control | endpoint: median survival time, dose: 16.0 mg/kg/injection, schedule: Q04DX003 (ip), vehicle: water 101 % of control | endpoint: median survival time, dose: 16.0 mg/kg/injection, schedule: Q04DX003 (iv), vehicle: water 76 % of control

O=[N+]([O-])c1ccc(C(Cl)S(=O)(=O)c2ccccc2)cc1 (stereo not drawn)
inactive: endpoint: mean survival time, dose: 100.0 mg/kg/injection, schedule: Q01DX009 (ip), vehicle: Klucel (hydroxypropylcellulose) (HPC) 98 % of control | endpoint: mean survival time, dose: 200.0 mg/kg/injection, schedule: Q01DX009 (ip), vehicle: Klucel (hydroxypropylcellulose) (HPC) 92 % of control | endpoint: mean survival time, dose: 400.0 mg/kg/injection, schedule: Q01DX009 (ip), vehicle: Klucel (hydroxypropylcellulose) (HPC) 110 % of control

CC12CCC(O)CC1CCC1C2CCC2(C)C(C3=CC(=O)OC3)CCC12O (stereo not drawn)
inactive: endpoint: mean survival time, dose: 12.5 mg/kg/injection, schedule: Q04DX003 (ip), vehicle: Klucel (hydroxypropylcellulose) (HPC) 92 % of control | endpoint: mean survival time, dose: 25.0 mg/kg/injection, schedule: Q04DX003 (ip), vehicle: Klucel (hydroxypropylcellulose) (HPC) 100 % of control | endpoint: mean survival time, dose: 50.0 mg/kg/injection, schedule: Q04DX003 (ip), vehicle: Klucel (hydroxypropylcellulose) (HPC) 92 % of control

CC(C)CC(=O)Nc1ccccc1
inactive: endpoint: mean survival time, dose: 100.0 mg/kg/injection, schedule: Q01DX009 (ip), vehicle: saline sonified 101 % of control | endpoint: mean survival time, dose: 200.0 mg/kg/injection, schedule: Q01DX009 (ip), vehicle: saline sonified 102 % of control | endpoint: mean survival time, dose: 400.0 mg/kg/injection, schedule: Q01DX009 (ip), vehicle: saline sonified 93 % of control

Nc1c(C(=O)NOCc2ccccc2)ncn1C1CCCC1
inactive: endpoint: mean survival time, dose: 50.0 mg/kg/injection, schedule: Q01DX001 (ip), vehicle: other 104 % of control | endpoint: mean survival time, dose: 100.0 mg/kg/injection, schedule: Q01DX001 (ip), vehicle: other 102 % of control

C1CCC(C2CCCC[N-]2)[N-]C1.CSCCC([NH-])C(=O)O.[Cl][Pt] (stereo not drawn)
inactive: endpoint: median survival time, dose: 10.0 mg/kg/injection, schedule: Q04DX003 (ip), vehicle: saline 101 % of control | endpoint: median survival time, dose: 20.0 mg/kg/injection, schedule: Q04DX003 (ip), vehicle: saline 101 % of control | endpoint: median survival time, dose: 40.0 mg/kg/injection, schedule: Q04DX003 (ip), vehicle: saline 94 % of control | endpoint: median survival time, dose: 80.0 mg/kg/injection, schedule: Q04DX003 (ip), vehicle: saline 101 % of control and 103 % of control | endpoint: median survival time, dose: 160.0 mg/kg/injection, schedule: Q04DX003 (ip), vehicle: saline 96 % of control | endpoint: median survival time, dose: 320.0 mg/kg/injection, schedule: Q04DX003 (ip), vehicle: saline 108 % of control

O=N/N=c1/c2[nH]cnc2ncn1O
inactive: endpoint: mean survival time, dose: 12.5 mg/kg/injection, schedule: Q01DX005 (ip), vehicle: distilled water + Tween-80 110 % of control | endpoint: mean survival time, dose: 25.0 mg/kg/injection, schedule: Q01DX005 (ip), vehicle: distilled water + Tween-80 93 % of control | endpoint: mean survival time, dose: 50.0 mg/kg/injection, schedule: Q01DX005 (ip), vehicle: distilled water + Tween-80 89 % of control | endpoint: mean survival time, dose: 100.0 mg/kg/injection, schedule: Q01DX005 (ip), vehicle: distilled water + Tween-80 88 % of control | endpoint: mean survival time, dose: 200.0 mg/kg/injection, schedule: Q01DX005 (ip), vehicle: distilled water + Tween-80 93 % of control
